IC50 data for 15 compounds are collected here from ChEMBL document CHEMBL1136402, “Characterization of HERG potassium channel inhibition using CoMSiA 3D QSAR and homology modeling approaches” (Bioorg Med Chem Lett, 2003).

pIC50: −log10 of the molar value.

The test deals with Voltage-gated inwardly rectifying potassium channel KCNH2 (Homo sapiens, UniProt Q12809). The experiment in a line: Inhibition of K+ channel activity in CHO cells expressing HERG Kv11.1.
Sequence of Voltage-gated inwardly rectifying potassium channel KCNH2 (Q12809 whole entry): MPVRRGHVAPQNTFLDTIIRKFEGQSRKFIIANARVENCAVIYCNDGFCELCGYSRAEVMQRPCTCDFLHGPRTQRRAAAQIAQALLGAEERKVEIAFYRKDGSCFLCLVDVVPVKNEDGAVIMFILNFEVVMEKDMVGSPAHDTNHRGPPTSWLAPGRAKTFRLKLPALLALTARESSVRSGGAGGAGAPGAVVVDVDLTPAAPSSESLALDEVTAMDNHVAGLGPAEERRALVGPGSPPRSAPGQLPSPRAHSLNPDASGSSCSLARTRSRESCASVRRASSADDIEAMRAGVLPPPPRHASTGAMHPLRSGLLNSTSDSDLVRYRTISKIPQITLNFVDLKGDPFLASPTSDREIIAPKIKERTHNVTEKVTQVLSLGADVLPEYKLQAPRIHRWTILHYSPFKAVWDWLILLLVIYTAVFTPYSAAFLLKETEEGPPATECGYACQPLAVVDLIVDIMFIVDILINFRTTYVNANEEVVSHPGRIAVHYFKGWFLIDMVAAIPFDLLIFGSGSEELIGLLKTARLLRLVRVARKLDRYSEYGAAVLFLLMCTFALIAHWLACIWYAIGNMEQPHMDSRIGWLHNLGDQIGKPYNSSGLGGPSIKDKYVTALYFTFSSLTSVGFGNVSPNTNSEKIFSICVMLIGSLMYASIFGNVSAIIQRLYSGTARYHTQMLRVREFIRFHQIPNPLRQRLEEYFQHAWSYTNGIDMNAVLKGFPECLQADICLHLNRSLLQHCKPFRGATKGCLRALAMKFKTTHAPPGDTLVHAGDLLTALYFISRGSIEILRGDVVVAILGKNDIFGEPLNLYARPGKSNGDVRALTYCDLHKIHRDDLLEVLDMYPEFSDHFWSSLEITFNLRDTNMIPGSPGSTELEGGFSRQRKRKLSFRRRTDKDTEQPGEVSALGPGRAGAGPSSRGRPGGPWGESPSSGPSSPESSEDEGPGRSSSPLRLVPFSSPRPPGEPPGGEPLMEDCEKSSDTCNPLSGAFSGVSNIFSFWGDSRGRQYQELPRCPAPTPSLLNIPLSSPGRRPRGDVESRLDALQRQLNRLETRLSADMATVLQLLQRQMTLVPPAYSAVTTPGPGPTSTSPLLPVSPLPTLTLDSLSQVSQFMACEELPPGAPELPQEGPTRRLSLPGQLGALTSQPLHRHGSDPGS

`O=C1NCCN1CCN1CC=C(c2cn(-c3ccc(F)cc3)c3ccc(Cl)cc23)CC1` had a negative logarithm of the IC50 (pIC50) of 8.00.

As for `O=C1NCCN1CCN1CCC(c2cn(-c3ccc(F)cc3)c3ccccc23)CC1`, the negative logarithm of the IC50 (pIC50) was 8.15. Take `Fc1ccc(-n2cc(C3CCNCC3)c3cc(Cl)ccc32)cc1`: the pIC50 is 6.69. In turn, `Fc1ccc(-n2cc(C3CCN(CCN4CCN=C4S)CC3)c3ccccc32)cc1` had a negative logarithm of the IC50 (pIC50) of 8.21. For `CC(C)(C)c1ccc2c(ccn2-c2ccc(F)cc2)c1` the value was below 5.00; for `CCc1cn(-c2ccc(F)cc2)c2ccc(Cl)cc12`, 5.46; for `CC(=O)c1cn(-c2ccc(F)cc2)c2ccc(Cl)cc12`, below 5.00. As to `CCCc1cn(-c2ccc(F)cc2)c2ccc(Cl)cc12`, the negative logarithm of the IC50 (pIC50) was 4.59. The compound `CC(O)c1cn(-c2ccc(F)cc2)c2ccc(Cl)cc12` (stereo not given) had a pIC50 of 5.34. For the compound `CC(C)c1cn(-c2ccc(F)cc2)c2ccc(Cl)cc12`, the negative logarithm of the IC50 (pIC50) was below 5.00. Compound `CCC(=O)c1cn(-c2ccc(F)cc2)c2ccc(Cl)cc12` showed a pIC50 of 5.71. For `O=C1NCCN1CCN1CCC(c2cn(C3CCCCC3)c3ccc(Cl)cc23)CC1` the value was 6.86; for `CCC(O)c1cn(-c2ccc(F)cc2)c2ccc(Cl)cc12` (stereo not given), 5.66; for `CCC(O)(CC)c1cn(-c2ccc(F)cc2)c2ccc(Cl)cc12`, 4.80. For `O=C1NCCN1CCN1CCC(C2CN(c3ccc(F)cc3)c3ccccc32)CC1` (stereo not given) the value was 7.63.

A word on the pIC50: it is the negative decadic logarithm of the IC50, by convention in mol/L. Low readings indicate a high IC50, high ones a low IC50.
